Here are results for 15 molecules from US5968791A, “Plant lysophosphatidic acid acyltransferases” (Calgene, Inc., priority 1995, dated 1999).

The target of assay [1] is T1, coconut LPAAT (Cocos nucifera, UniProt Q42670).
T1 sequence (Q42670 1-308): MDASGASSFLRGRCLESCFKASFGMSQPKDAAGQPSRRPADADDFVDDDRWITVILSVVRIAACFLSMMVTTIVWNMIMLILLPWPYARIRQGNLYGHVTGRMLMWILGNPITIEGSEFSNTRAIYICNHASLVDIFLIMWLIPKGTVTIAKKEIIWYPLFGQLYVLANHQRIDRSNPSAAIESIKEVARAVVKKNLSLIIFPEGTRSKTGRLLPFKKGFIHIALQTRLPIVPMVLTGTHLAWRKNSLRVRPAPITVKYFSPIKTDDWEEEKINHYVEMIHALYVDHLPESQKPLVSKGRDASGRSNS
The experiment in a line: LPAAT activity assay, coconut P2 membrane preparation. Also noted: white endosperm tissue lining the inside of the endocarp can be dissected and collected; from tissue; host or cells: immature coconut endosperm, P2 membrane fraction. Format: biochemical. Conditions: for effect on medium-chain LPAAT activity: coconut P2. As to the method: (§1) To assay for LPAAT activity, the sample is incubated with lysophosphatidic acid (LPA) and acyl-coenzyme A (acyl-CoA) substrates in buffered solution. The acyl substituents of the two substrates are chosen to correspond with the specificity of the enzyme being measured. For example, to measure activity of an LPAAT having preference for medium-chain substrates, lauroyl-LPA (lauroyl-lysophosphatidic acid) and lauroyl-CoA may be used, to measure activity of an LPAAT preferring longer-chain acyl groups, oleoyl-LPA and oleoyl-CoA may be used, to measure activity of an LPAAT preferring very-long chain substrate, erucyl-LPA and erucyl-CoA may be used, and so on, depending upon the type of LPAAT to be tested. The acyl group of one substrate is radioactively labeled in order to detect the product formed. In the examples which follow the acyl substituent of the acyl-CoA substrate is radiolabeled with ^14 C in the carboxyl group. LPAAT activity results in transfer of this acyl group from the acyl-CoA "donor" substrate to the LPA "acceptor" substrate, converting the latter into the product, phosphatidic acid (PA). LPAAT activity is measured as the amount of radioactive product formed in a given assay time. The PA product is radioactive as a result of the transferred radiolabeled acyl group at the central carbon atom of the molecule, and the quantity of PA formed may be determined by measuring radioactivity of the PA fraction. For this measurement, the PA is first separated from the acyl-CoA substrate by solvent partitioning, or by thin-layer chromatography (TLC).
(§2) 20 μl of the sample to be assayed for LPAAT activity is mixed with 217.5 μl of an assay ingredient mixture in a 4-ml, screw-cap vial. […] The incubation takes place in a water bath at 30° C., for 20-30 minutes.
(§3) To stop the assay, 0.25 ml of 1M KCl in 0.2M H3 PO4 is added to the vial. At this point, 40 μl BSA (bovine serum albumin, fraction V) at 1 mg/ml are added, followed by 0.75 ml of a solution of 67 μg/ml unlabeled PA (acting as a "carrier" to facilitate partitioning) in chloroform/methanol (2:1, v/v). The chain lengths of the PA acyl groups are chosen to correspond to those used in the assay substrates. Upon thorough mixing of these components the radiolabeled PA product of the LPAAT reaction partitions into the organic phase and away from the unreacted acyl-CoA and LPA. The vial is centrifuged briefly at low speed to facilitate the separation of organic (lower) and aqueous (upper) phases. The aqueous phase is then removed and discarded. The total radioactivity extracted into the organic phase is determined by liquid scintillation counting; a 100 μl sample of the organic phase is transferred to a 20 ml scintillation vial and allowed to dry, and scintillation fluid (3-5 ml) is added to the vial. The radioactivity of the sample, after subtraction of the "minus-enzyme" or "minus-LPA" radioactivities, is taken as an approximate indication of the amount of PA formed in the LPAAT-catalyzed reaction and therefore of LPAAT activity.
A more accurate estimation of the LPAAT activity may be obtained by separating the PA product from these contaminants by TLC. The remaining organic phase is applied to a silica TLC plate. Ascending chromatography is carried out for 50 minutes, using the solvent mixture chloroform/pyridine/88% formic acid (50:30:7, v/v). After the plate has dried, the distribution of radioactivity is visualized and quantitated using an AMBIS radioanalytic imaging system (AMBIS Systems Inc., San Diego, Calif.). From prior application of standard lipid components the Rf of the PA is known. The radioactivity associated with the PA spot is expressed as a percentage of the total radioactivity of the assay sample loaded on the plate. This ratio provides an indication of the proportion of the scintillation counts which represent the PA product, and may be used to correct the counts to obtain the total PA radioactivity formed in the assay. […]

For assay [2], the system named is bay LPAAT. The experiment in a line: LPAAT activity assay, California bay P2 membrane preparation. Format: biochemical, Umbellularia californica. The settings on record: for detergent concentration in the assay that inhibits long-chain LPAAT activity completely: 18:1-CoA and 18:1-LPA, concentrations w/v; for detergent concentration tolerated without complete loss of activity: 1-hour exposure, diluted prior to assay.
Procedure: To assay for LPAAT activity, the sample is incubated with lysophosphatidic acid (LPA) and acyl-coenzyme A (acyl-CoA) substrates in buffered solution. The acyl substituents of the two substrates are chosen to correspond with the specificity of the enzyme being measured. […] The acyl group of one substrate is radioactively labeled in order to detect the product formed. In the examples which follow the acyl substituent of the acyl-CoA substrate is radiolabeled with ^14 C in the carboxyl group. LPAAT activity results in transfer of this acyl group from the acyl-CoA "donor" substrate to the LPA "acceptor" substrate, converting the latter into the product, phosphatidic acid (PA). LPAAT activity is measured as the amount of radioactive product formed in a given assay time. The PA product is radioactive as a result of the transferred radiolabeled acyl group at the central carbon atom of the molecule, and the quantity of PA formed may be determined by measuring radioactivity of the PA fraction. For this measurement, the PA is first separated from the acyl-CoA substrate by solvent partitioning, or by thin-layer chromatography (TLC).

Assay [3] concerns the target T2, coconut medium-chain LPAAT (Cocos nucifera, UniProt Q42670).
T2 construct: The frozen coconut P2 preparation is thawed and diluted in a volume of P2 Buffer; from tissue; host or cells: immature coconut endosperm, solubilized S3 supernatant of P2 membranes
T2 sequence (Q42670 1-308): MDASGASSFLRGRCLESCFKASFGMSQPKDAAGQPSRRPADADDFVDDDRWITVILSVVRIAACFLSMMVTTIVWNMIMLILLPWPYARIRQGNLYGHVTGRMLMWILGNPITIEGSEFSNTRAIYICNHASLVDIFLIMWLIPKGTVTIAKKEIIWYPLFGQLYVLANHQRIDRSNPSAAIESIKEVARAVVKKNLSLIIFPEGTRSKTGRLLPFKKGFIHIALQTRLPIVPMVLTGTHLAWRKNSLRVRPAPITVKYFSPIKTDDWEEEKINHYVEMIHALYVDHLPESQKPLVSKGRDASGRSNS
Kind of assay: Assay of solubilized coconut LPAAT (S3 preparation) with phospholipid activation. Format: biochemical. The settings on record: for effect on LPAAT activity of the coconut S3 preparation: added at 1 mM; for reduction of LPAAT activity of the coconut S3 preparation: added at 10 mM. As to the method: After solubilization of LPAAT protein from plant membranes as described below, modification of the above assay conditions is required in order to detect maximum LPAAT activity. This is especially important after the solubilized LPAAT has been chromatographed on at least one column. The important modification to the assay is the addition, at the start of the assay procedure, of 1 μl of a concentrated phospholipid (PL) solution to 20 μl of the LPAAT-containing sample in a glass vial. The high concentrations of CHAPS (at least 1% w/v) and NaCl (typically 0.5M or greater) in the solubilized LPAAT preparation aid in dispersal of the phospholipids. The phospholipid solution is obtained by sonicating crude soybean phospholipids (L-phosphatidylcholine from soybean, "Type IVs" obtained from Sigma Chemical Company, St. Louis) at 50 mg/ml in 0.5% (w/v) CHAPS (3-[(3-cholamidopropyl) -dimethylammonio]-1-propane-sulfonate) until a uniform suspension is obtained.
The remaining assay ingredients (as described above), with the exception of the acyl-CoA substrate, are then added as 219 μl of a mixture. […] Radiolabeled acyl-CoA (10 μl, or an appropriately adjusted volume as indicated above) is added to start the LPAAT-catalyzed reaction and the rest of the assay procedure is completed as described above.
All steps are carried out at 0-4° C. The frozen coconut P2 preparation is thawed and diluted in a volume of P2 Buffer to achieve a protein concentration of 0.94 mg/ml P2 protein. Protein concentration is determined by Coomassie dye staining relative to a bovine serum albumin standard. The P2 membrane suspension is then diluted with an equal volume of Solubilization Buffer (50 mM HEPES-NaOH, pH 7.5, […], 20% (w/v) glycerol, 4.5% (w/v) CHAPS, 100 μM Pefabloc, 1 μM leupeptin, 1 μM Pepstatin A, and 5 mM β-ME), resulting in final concentrations of 1M NaCl, 2.25% (w/v) detergent, and 0.47 mg/ml protein. These component concentrations, and the resulting detergent/protein ratio of 48/1 (w/w), are important for optimal solubilization. The preparation is then incubated on ice for 30 minutes with occasional, gentle stirring, followed by centrifugation at 252,000×g for 2 hours. The resulting supernatant fraction (S3) is filtered through buffer-wetted Miracloth, and may then be stored frozen (-70) with only slight loss of activity. Optimally, it is applied to chromatography columns without an intervening freeze-thaw cycle.
Assay of the coconut medium-chain LPAAT activity after solubilization (S3 preparation) and reactivation with PLs, using different acyl-CoA substrates, provides the following results (Table 3). In all these assays the acceptor substrate is 12:0-LPA.

In assay [4] the test system is Rapeseed LPAAT. The experiment in a line: LPAAT activity assay, rapeseed P2 membrane preparation. Format: biochemical, Brassica napus. The settings on record: acyl-CoA donor varied, acceptor 12:0-LPA. The protocol:
as §1, §2, §3
A more accurate estimation of the LPAAT activity may be obtained by separating the PA product from these contaminants by TLC. The remaining organic phase is applied to a silica TLC plate. […] After the plate has dried, the distribution of radioactivity is visualized and quantitated using an AMBIS radioanalytic imaging system (AMBIS Systems Inc., San Diego, Calif.). From prior application of standard lipid components the Rf of the PA is known. The radioactivity associated with the PA spot is expressed as a percentage of the total radioactivity of the assay sample loaded on the plate. This ratio provides an indication of the proportion of the scintillation counts which represent the PA product, and may be used to correct the counts to obtain the total PA radioactivity formed in the assay.
A P2 membrane homogenate from immature embryos of developing rapeseed (Brassica napus) seeds is prepared essentially as described above, except as noted below.

Setting [5] is: P2 membrane preparation, acyl-CoA donor varied, acceptor 12:0-LPA.

Bounds are passed on as bounds.

Consider `C[C@H](CCC(=O)NCCC[N+](C)(C)CCCS(=O)(=O)[O-])[C@H]1CC[C@H]2[C@@H]3[C@H](O)C[C@@H]4C[C@H](O)CC[C@]4(C)[C@H]3C[C@H](O)[C@]12C` [CHAPS, 3-[(3-cholamidopropyl) -dimethylammonio]-1-propane-sulfonate], for which, in assay [1] (coconut medium-chain LPAAT assay), the “concentration above which inhibitory in the medium-chain LPAAT assay” value is recorded as “above 0.1 % (w/v)”. Moreover, the inhibition at 5000 µg/mL in assay [1] (read-out: LPAAT activity loss) stood at 50%.

In the case of `C[C@H](CCC(=O)O)[C@H]1CC[C@H]2[C@@H]3CC[C@@H]4C[C@H](O)CC[C@]4(C)[C@H]3C[C@H](O)[C@]12C` [sodium deoxycholate], the “detergent concentration in the assay that inhibits long-chain LPAAT activity completely” value in assay [2] (bay P2 preparation) came out at 0.1%.

For Tween 20, in assay [2] (bay P2 preparation), the “detergent concentration tolerated without complete loss of activity” value is given as 2.5% and the “detergent concentration in the assay that inhibits long-chain LPAAT activity completely” value was 1%.

Turning to `CCCCCCCCCCCCOS(=O)(=O)[O-].[Na+]` [SDS, sodium dodecyl sulfate], the “detergent concentration in the assay that inhibits long-chain LPAAT activity completely” value in assay [2] (bay P2 preparation) is given as 0.002%.

As to `[Ca+2]` [Ca^2+], in assay [3], the “effect on LPAAT activity of the coconut S3 preparation” value (from here on “effect on LPAAT activity”) is reported as “without significant effect” and the “reduction of LPAAT activity of the coconut S3 preparation” value (“reduction” for short) is recorded as not below 50%.

On to `[Mg+2]` [Mg^2+], for which, in assay [3], the “effect on LPAAT activity” value is given as “without significant effect” and the “reduction” value is reported as not below 50%.

Consider `[Mn+2]` [Mn^2+], for which, in assay [3], the “effect on LPAAT activity” value is “without significant effect” and the “reduction” value is not below 50%.

On to lysophosphatidylcholine, for which the “effect on medium-chain LPAAT activity” value in assay [1] (60 μM in the assay system) is on record as “unaffected”.

As for `CC(C)(COP(=O)(O)OP(=O)(O)OC[C@H]1O[C@@H](n2cnc3c(N)ncnc32)[C@H](O)[C@@H]1OP(=O)(O)O)[C@@H](O)C(=O)NCCC(=O)NCCS` [CoA], the “effect on medium-chain LPAAT activity” value in assay [1] (0.1 mM in the assay system) is reported as “unaffected”.

As for `CCCCCC(=O)SCCNC(=O)CCNC(=O)[C@H](O)C(C)(C)COP(=O)(O)OP(=O)(O)OC[C@H]1O[C@@H](n2cnc3c(N)ncnc32)[C@H](O)[C@@H]1OP(=O)(O)O` [6:0], in assay [2] (setting [5]), the “LPAAT Activity from Bay” value is on record as 1 pmol PA formed/30 min assay. For the same molecule, the “LPAAT Activity from Rapeseed” value in assay [4] was 0 pmol PA formed/30 min assay. Also, in assay [3] (radioactivity of PA product resolved on TLC, after 30 min assay, S3 reactivated with PLs, acceptor 12:0-LPA), the “LPAAT Activity, solubilized coconut LPAAT” value was found to be 1 cpm. The “LPAAT Activity from Coconut” value in assay [1] (setting [5]) was 3 pmol PA formed/30 min assay.

Regarding `CCCCCCCCO[C@@H]1O[C@H](CO)[C@@H](O)[C@H](O)[C@H]1O` [octyl glucoside], in assay [2] (bay P2 preparation), the “detergent concentration tolerated without complete loss of activity” value was determined as 0.5% and the “detergent concentration in the assay that inhibits long-chain LPAAT activity completely” value is 0.1%.

Triton X100: in assay [2] (bay P2 preparation), the “detergent concentration tolerated without complete loss of activity” value is 0.1% and the “detergent concentration in the assay that inhibits long-chain LPAAT activity completely” value was 0.03%.

With `CCCCCCCCCCCCCC[N+](C)(C)CCCS(=O)(=O)[O-]` [Zwittergent 3-14], the “detergent concentration in the assay that inhibits long-chain LPAAT activity completely” value in assay [2] (bay P2 preparation) is on record as 0.005%.

`Nc1ncnc2c1ncn2[C@@H]1O[C@H](COP(=O)(O)OP(=O)(O)OP(=O)(O)O)[C@@H](O)[C@H]1O` [adenosine-5'-triphosphate]: the “effect on medium-chain LPAAT activity” value in assay [1] (2 mM in the assay system) is given as “unaffected”.

B1: 18:1-ACP: 18:1 acyl-ACP tested as LPAAT donor substrate (conjugate, UniProt P0A6A8 2-78, looked up)
Acyl carrier protein: STIEERVKKIIGEQLGVKQEEVTNNASFVEDLGADSLDTVELVMALEEEFDTEIPDEEAEKITTVQAAIDYINGHQA
modifications: 18:1 acyl thioester
notes: 18:1 acyl-ACP tested as LPAAT donor substrate
In the case of B1, the “utilization as LPAAT donor substrate instead of 18:1-CoA” value in assay [2] (bay P2 preparation) is reported as “will not significantly utilize”.
